Assay results: ChEMBL document CHEMBL1134501, “Structure-activity studies for a novel series of bicyclic substituted hexahydrobenz[e]isoindole alpha1A adrenoceptor antagonists as potential agents for the symptomatic treatment of benign prostatic hyperplasia” (J Med Chem, 2001)

Key:
[1] = target: T1, Alpha-1D adrenergic receptor (Rattus norvegicus, UniProt P23944); assay: Binding affinity to rat alpha-1D adrenergic receptor expressed in LTK cells; type: cell-based
T1 sequence (P23944 whole entry): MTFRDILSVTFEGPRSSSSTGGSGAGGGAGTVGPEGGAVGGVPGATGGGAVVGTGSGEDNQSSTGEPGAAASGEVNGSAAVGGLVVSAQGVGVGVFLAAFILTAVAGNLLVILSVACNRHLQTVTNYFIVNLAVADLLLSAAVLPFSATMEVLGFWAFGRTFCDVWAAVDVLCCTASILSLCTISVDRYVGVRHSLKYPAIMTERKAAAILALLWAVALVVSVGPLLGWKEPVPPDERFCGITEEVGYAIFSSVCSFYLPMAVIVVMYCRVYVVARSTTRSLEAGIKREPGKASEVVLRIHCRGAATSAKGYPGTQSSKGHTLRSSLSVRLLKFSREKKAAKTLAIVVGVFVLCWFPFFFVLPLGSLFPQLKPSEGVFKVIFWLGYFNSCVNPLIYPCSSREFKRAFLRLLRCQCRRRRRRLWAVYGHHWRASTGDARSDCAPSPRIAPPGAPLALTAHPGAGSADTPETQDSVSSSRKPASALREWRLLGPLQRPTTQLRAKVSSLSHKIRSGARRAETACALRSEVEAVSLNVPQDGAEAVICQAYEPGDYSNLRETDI

[2] = target: T2, Alpha-1A adrenergic receptor (Rattus norvegicus, UniProt P43140); assay: Binding affinity to alpha-1A adrenergic receptor in rat submaxillary gland; type: tissue-based
T2 sequence (P43140 whole entry): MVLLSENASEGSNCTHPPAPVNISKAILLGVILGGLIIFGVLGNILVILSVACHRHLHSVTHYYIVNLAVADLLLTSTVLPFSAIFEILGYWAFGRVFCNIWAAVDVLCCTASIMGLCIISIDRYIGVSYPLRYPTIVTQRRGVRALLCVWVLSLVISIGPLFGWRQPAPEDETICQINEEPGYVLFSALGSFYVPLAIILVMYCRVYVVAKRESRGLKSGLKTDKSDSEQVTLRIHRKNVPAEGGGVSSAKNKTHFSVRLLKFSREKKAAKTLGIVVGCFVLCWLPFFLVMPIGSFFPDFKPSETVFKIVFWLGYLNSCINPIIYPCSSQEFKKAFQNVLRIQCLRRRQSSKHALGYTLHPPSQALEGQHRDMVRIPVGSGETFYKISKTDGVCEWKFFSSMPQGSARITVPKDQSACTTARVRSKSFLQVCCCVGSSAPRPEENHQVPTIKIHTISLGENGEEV

[3] = organism: Cricetulus griseus; assay: Selectivity ratio (alpha-1B/alpha-1A) of the compound
[4] = target: T3, Alpha-1B adrenergic receptor (Rattus norvegicus, UniProt P15823); assay: In vitro antagonistic activity against alpha-1B receptor in rat spleen.; type: functional, tissue-based; details: read-out: pA2 (converted)
T3 sequence (P15823 whole entry): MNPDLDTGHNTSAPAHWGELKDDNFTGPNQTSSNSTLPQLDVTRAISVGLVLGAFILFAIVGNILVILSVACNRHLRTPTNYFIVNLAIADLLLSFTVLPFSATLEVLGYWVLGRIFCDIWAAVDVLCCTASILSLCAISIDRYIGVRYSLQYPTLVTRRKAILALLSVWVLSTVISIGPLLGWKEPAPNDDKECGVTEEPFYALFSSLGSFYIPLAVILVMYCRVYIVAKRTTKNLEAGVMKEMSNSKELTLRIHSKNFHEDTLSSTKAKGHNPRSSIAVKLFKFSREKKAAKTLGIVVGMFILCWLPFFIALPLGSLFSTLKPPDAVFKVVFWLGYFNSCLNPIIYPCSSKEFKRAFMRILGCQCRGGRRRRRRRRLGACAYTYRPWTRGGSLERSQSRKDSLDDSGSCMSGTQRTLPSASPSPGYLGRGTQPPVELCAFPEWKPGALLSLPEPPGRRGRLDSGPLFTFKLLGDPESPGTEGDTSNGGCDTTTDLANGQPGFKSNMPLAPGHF

[5] = system: Canis familiaris; assay: In vivo antagonist dissociation constant in intaraurethral pressure model in dogs.; details: Canis lupus familiaris, read-out: pA2 (converted)
[6] = organism: Rattus norvegicus; assay: Antagonistic activity in spontaneously hypertensive rat model.; type: functional
[7] = target: T2, Alpha-1A adrenergic receptor; assay: In vitro antagonistic activity towards alpha-1A adrenergic receptor in rat vas deferens; type: functional, tissue-based; details: read-out: pA2 (converted)
[8] = Selectivity ratio (antolog[pA2rat vas deferens/pA2 rat spleen]) of the compound; type: functional
[9] = target: Alpha-1A adrenergic receptor (Canis familiaris); assay: In vitro antagonistic activity against alpha-1A receptor in dog prostate.; details: read-out: pA2 (converted)

| SMILES | Ki [1] [nM] | Ki [2] [nM] | Ratio [3] | other results |
| --- | --- | --- | --- | --- |
| COc1cccc2c1CC[C@H]1CN(CCn3c(=O)[nH]c4cccc(Cl)c4c3=O)C[C@@H]21 | 0.69 | 0.71 | 1.31 | – |
| COc1cccc2c1CC[C@H]1CN(CCn3c(=O)[nH]c4cc(-c5ccccc5)sc4c3=O)C[C@@H]21 | 4.4 | 7.73 | 1.5 | – |
| COc1cc2c(cc1OC)NCN(CCN1C[C@@H]3CCc4c(OC)cccc4[C@@H]3C1)C2 | 189 | 62.2 | 1.01 | – |
| COc1cc(N)c(C(=O)NCCN2C[C@@H]3CCc4c(OC)cccc4[C@@H]3C2)cc1OC | 32.7 | 3.75 | 7.8 | – |
| COc1cccc2c1CC[C@H]1CN(CCn3c(=O)[nH]c4ncccc4c3=O)C[C@@H]21 | 1.99 | – | – | – |
| COc1cc2ncn(CCN3C[C@@H]4CCc5c(OC)cccc5[C@@H]4C3)c(=O)c2cc1OC | 7.79 | – | – | Kb [4]: 85.1 nM; Kb [5]: 5.01 nM; pED50 [6]: 5.32 |
| COc1cc2c(cc1OC)C(=O)N(CCN1C[C@@H]3CCc4c(OC)cccc4[C@@H]3C1)CN2 | 72 | 12.9 | 7.4 | – |
| CCOc1ccccc1OCCN[C@H](C)Cc1ccc(OC)c(S(N)(=O)=O)c1 [TAMSULOSIN] | – | – | – | Kb [5]: 1.35 nM |
| COc1cc2c(cc1OC)C(=O)N(CCN1C[C@@H]3CCc4c(OC)cccc4[C@@H]3C1)CC2 | 58.4 | 7.82 | 7.83 | – |
| COc1cccc2c1CC[C@H]1CN(CCn3c(=O)[nH]c4c(C(C)C)c(OC)sc4c3=O)C[C@@H]21 | 1.5 | 0.41 | 5.6 | – |
| COc1cccc2c1CC[C@H]1CN(CCn3c(=O)[nH]c4c(C)c(OC)sc4c3=O)C[C@@H]21 | 1.45 | 1.09 | 6.5 | – |
| COc1cccc2c1CC[C@H]1CN(CCn3c(=O)[nH]c4nccnc4c3=O)C[C@@H]21 | 5.49 | 9.22 | 1.36 | – |
| COc1ccc2[nH]c(=O)n(CCN3C[C@@H]4CCc5c(OC)cccc5[C@@H]4C3)c(=O)c2c1 | 1.13 | 1.02 | 3.68 | – |
| COc1cc2[nH]c(=O)n(CCN3C[C@@H]4CCc5c(OC)cccc5[C@@H]4C3)c(=O)c2cc1OC | 1.4 | – | – | – |
| COc1cccc2c1CC[C@H]1CN(CCn3c(=O)[nH]c4c(C)c(C)ccc4c3=O)C[C@@H]21 | 0.89 | 0.09 | 14.6 | – |
| COc1cccc2c1CC[C@H]1CN(CCn3c(=O)[nH]c4cscc4c3=O)C[C@@H]21 | 0.52 | 0.48 | 2.1 | – |
| COc1cccc2c1CCC1CN(CCn3c(=O)[nH]c4ccsc4c3=O)CC21 (configuration not stated) | 0.92 | 1.39 | 1.17 | – |
| COc1cccc2c1CC[C@H]1CN(CCn3c(=O)[nH]c4cnccc4c3=O)C[C@@H]21 | 1.78 | 1.41 | 2.19 | – |
| COc1cccc2c1CC[C@H]1CN(CCn3c(=O)[nH]c4cc(NC(C)=O)ccc4c3=O)C[C@@H]21 | 0.41 | 0.43 | 1.95 | – |
| COc1cccc2c1CC[C@H]1CN(CCn3c(=O)[nH]c4c(C)csc4c3=O)C[C@@H]21 | 0.71 | 0.85 | – | – |
| COc1cc2[nH]c(=O)n(CCN3C[C@@H]4CCc5c(OC)cccc5[C@@H]4C3)c(=O)c2s1 | 0.24 | 0.04 | 18 | – |
| COc1cccc2c1CC[C@H]1CN(CCn3c(=O)[nH]c4cccc(C)c4c3=O)C[C@@H]21 | 1.13 | 1.15 | 0.9 | – |

| SMILES | Ki [1] [nM] | Ki [2] [nM] | Ratio [3] | other results |
| --- | --- | --- | --- | --- |
| COc1cccc2c1CC[C@H]1CN(CCn3c(=O)[nH]c4sccc4c3=O)C[C@@H]21 | 1.01 | 1.03 | 2.04 | – |
| COc1cc2[nH]c(=O)n(CCN3C[C@@H]4CCc5c(OC)cccc5[C@@H]4C3)c(=O)c2cc1Cl | 2.71 | 1.89 | 4.9 | – |
| COc1cccc2c1CC[C@H]1CN(CCn3c(=O)[nH]c4cc([N+](=O)[O-])ccc4c3=O)C[C@@H]21 | 1.2 | 0.91 | 3.65 | – |
| COc1ccc2c(=O)n(CCN3C[C@@H]4CCc5c(OC)cccc5[C@@H]4C3)c(=O)[nH]c2c1 | 0.21 | 0.09 | 7.3 | – |
| COc1cccc2c1CC[C@H]1CN(CCn3c(=O)[nH]c4cc(C#N)ccc4c3=O)C[C@@H]21 | 0.77 | 0.09 | 17.3 | Kb [4]: 18.6 nM; Kb [7]: 1.48 nM; Ratio [8]: 12.59; Kb [9]: 0.148 nM |
| COc1cc2nc(N3CCN(C(=O)C4CCCO4)CC3)nc(N)c2cc1OC (configuration not stated) [TERAZOSIN] | – | – | – | Kb [5]: 95.5 nM |
| COc1cc2c(=O)n(CCN3C[C@@H]4CCc5c(OC)cccc5[C@@H]4C3)c(=O)n(C)c2cc1OC | 3.71 | 0.25 | 13.2 | – |
| COc1cccc2c1CC[C@H]1CN(CCn3c(=O)[nH]c4c(C)cc(C)cc4c3=O)C[C@@H]21 | 2.86 | 2.73 | 5.96 | – |
| COc1cc2c(cc1OC)CN(CCN1C[C@@H]3CCc4c(OC)cccc4[C@@H]3C1)CC2 | 83.4 | 80.7 | 1.43 | – |
| COc1cccc2c1CC[C@H]1CN(CCn3c(=O)[nH]c4c(OC)cccc4c3=O)C[C@@H]21 | 1.15 | 0.85 | 2.67 | – |
| COc1cccc2c1CC[C@H]1CN(CCn3c(=O)[nH]c4ccccc4c3=O)C[C@@H]21 | 0.62 | 0.67 | 1.73 | – |
| COC(=O)c1ccc2c(=O)n(CCN3C[C@@H]4CCc5c(OC)cccc5[C@@H]4C3)c(=O)[nH]c2c1 | 0.77 | 0.27 | 6.07 | – |
| COc1cccc2c1CC[C@H]1CN(CCn3c(=O)[nH]c4[nH]ccc4c3=O)C[C@@H]21 | 1.67 | 1.2 | 2.15 | – |
| COc1cccc2c1CC[C@H]1CN(CCn3c(=O)[nH]c4ccsc4c3=O)C[C@@H]21 | 0.92 | 1.39 | – | – |
| COc1cccc2c1CC[C@H]1CN(CCn3c(=O)[nH]c4cc(C)c(C)cc4c3=O)C[C@@H]21 | 0.73 | 1.38 | 2.94 | – |
| COc1cccc2c1CC[C@H]1CN(CCn3c(=O)[nH]c4ccncc4c3=O)C[C@@H]21 | 2.87 | 6.8 | 1.55 | – |
| COc1cc2nc(N(C)CCCNC(=O)C3CCCO3)nc(N)c2cc1OC (configuration not stated) [ALFUZOSIN] | – | – | – | Kb [4]: 4.9 nM; Kb [5]: 135 nM |
| COC(=O)c1cc2[nH]c(=O)n(CCN3C[C@@H]4CCc5c(OC)cccc5[C@@H]4C3)c(=O)c2s1 | 1.38 | 1.48 | 2.3 | – |
| COc1cccc2c1CC[C@H]1CN(CCn3c(=O)[nH]c4c(OC)c(OC)ccc4c3=O)C[C@@H]21 | 0.68 | 0.04 | 16.5 | Ratio [8]: 5.62 |
| COc1cc2c(cc1OC)NC(=O)N(CCN1C[C@@H]3CCc4c(OC)cccc4[C@@H]3C1)C2 | 168 | 123 | 1.5 | – |
| COc1cccc2c1CC[C@H]1CN(CCn3c(=O)[nH]c4c(-c5ccccc5)csc4c3=O)C[C@@H]21 | 0.66 | 0.33 | 1 | – |
| COc1cccc2c1CC[C@H]1CN(CCn3c(=O)[nH]c4cccnc4c3=O)C[C@@H]21 | 2.5 | 3.58 | 2.29 | – |
